Target: PI3K (Homo sapiens, UniProt P42336)
Assay: Fluorescence polarization assay for PI3K;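 also: PI3K kinase reaction on PIP2 with ATP, 30-60 min, product sensed by GST-GRP with red probe in fluorescence polarization (mP), controls without enzyme and at zero time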
Type: biochemical
Settings: PI3Kα; read-out: PI3Kα IC50

Sequence of PI3K (P42336 whole entry): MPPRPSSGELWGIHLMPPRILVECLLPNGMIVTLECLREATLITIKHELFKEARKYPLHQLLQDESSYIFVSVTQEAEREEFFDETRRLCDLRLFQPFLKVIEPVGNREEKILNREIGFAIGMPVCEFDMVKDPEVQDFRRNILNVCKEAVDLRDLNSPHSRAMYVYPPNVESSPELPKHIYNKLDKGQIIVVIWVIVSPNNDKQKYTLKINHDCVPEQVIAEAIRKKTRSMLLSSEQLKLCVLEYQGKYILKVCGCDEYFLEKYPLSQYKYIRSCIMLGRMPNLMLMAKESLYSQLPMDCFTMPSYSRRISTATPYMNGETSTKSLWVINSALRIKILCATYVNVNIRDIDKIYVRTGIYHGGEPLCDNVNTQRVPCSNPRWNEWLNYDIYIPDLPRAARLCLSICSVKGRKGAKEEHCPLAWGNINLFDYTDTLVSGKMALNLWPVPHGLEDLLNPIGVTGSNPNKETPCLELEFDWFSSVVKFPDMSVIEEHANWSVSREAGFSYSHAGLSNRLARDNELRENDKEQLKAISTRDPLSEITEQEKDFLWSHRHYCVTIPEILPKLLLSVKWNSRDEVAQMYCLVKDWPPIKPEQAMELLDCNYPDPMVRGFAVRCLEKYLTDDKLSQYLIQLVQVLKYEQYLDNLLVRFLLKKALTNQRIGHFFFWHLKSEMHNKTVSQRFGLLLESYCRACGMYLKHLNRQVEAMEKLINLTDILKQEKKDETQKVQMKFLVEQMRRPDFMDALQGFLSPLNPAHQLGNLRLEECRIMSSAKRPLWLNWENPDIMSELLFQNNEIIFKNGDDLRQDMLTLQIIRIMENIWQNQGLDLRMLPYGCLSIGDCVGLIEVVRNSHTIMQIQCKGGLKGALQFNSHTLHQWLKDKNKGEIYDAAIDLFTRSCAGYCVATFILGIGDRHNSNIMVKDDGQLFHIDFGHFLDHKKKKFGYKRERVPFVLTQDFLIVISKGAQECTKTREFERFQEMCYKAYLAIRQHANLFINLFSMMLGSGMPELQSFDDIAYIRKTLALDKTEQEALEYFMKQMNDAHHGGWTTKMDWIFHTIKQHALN
Sequence of PI3K (P27986 whole entry partner): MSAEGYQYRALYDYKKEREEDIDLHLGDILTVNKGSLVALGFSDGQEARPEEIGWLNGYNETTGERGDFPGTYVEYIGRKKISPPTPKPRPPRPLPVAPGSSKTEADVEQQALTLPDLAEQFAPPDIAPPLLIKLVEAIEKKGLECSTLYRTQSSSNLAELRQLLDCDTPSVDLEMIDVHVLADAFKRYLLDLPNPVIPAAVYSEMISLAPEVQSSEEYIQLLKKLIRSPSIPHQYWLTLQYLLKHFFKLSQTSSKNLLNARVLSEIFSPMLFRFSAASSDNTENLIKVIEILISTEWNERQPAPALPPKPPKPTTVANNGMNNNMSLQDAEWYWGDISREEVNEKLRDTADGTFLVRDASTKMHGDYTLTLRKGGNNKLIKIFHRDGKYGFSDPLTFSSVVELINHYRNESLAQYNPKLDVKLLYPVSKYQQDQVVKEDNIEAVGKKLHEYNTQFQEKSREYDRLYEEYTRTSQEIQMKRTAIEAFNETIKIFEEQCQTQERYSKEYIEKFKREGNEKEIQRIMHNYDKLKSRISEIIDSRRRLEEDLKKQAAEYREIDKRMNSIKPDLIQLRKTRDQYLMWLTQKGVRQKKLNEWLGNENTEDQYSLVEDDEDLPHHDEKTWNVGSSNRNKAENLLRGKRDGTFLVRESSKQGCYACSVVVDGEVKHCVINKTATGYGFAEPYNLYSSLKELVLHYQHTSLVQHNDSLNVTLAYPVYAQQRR

Structure (SMILES) | IC50 [nM]
CNC(=O)Nc1ccc(-c2nc(N3CCOCC3)c3cnn(C4CCCCO4)c3n2)cc1 (stereo not shown) [Compound 935, 1-methyl-3-{4-[4-morpholin-4-yl-1-(tetrahydro-2H-pyran-2-yl)-1H-pyrazolo[3,4-d]pyrimidin-6-yl]phenyl}urea] | 118
CNC(=O)Nc1ccc(-c2nc(N3CCOCC3)c3cnn(C4CCN(Cc5ccco5)CC4)c3n2)cc1 [Compound 647, 1-(4-{1-[1-(2-furylmethyl)piperidin-4-yl]-4-morpholin-4-yl-1H-pyrazolo[3,4-d]pyrimidin-6-yl}phenyl)-3-methylurea] | 63
FC(F)(F)CN1CCC(n2ncc3c(N4CCOCC4)nc(-c4ccc5[nH]ccc5c4)nc32)CC1 [Compound 715, 6-(1H-indol-5-yl)-4-morpholin-4-yl-1-[1-(2,2,2-trifluoroethyl)piperidin-4-yl]-1H-pyrazolo[3,4-d]pyrimidine] | 2880
O=C(Nc1ccc(-c2nc(N3CCOCC3)c3cnn(C4CCN(C(=O)c5cccnc5)CC4)c3n2)cc1)NC1CC1 [Compound 659, 1-cyclopropyl-3-(4-{4-morpholin-4-yl-1-[1-(pyridin-3-ylcarbonyl)piperidin-4-yl]-1H-pyrazolo[3,4-d]pyrimidin-6-yl}phenyl)urea] | 357
O=C(Nc1ccccc1)Nc1cc(F)c(-c2nc(N3CCOCC3)c3cnn(C4CCN(C(=O)c5cccnc5)CC4)c3n2)cc1F [Compound 713, 1-(2,5-difluoro-4-{4-morpholin-4-yl-1-[1-(pyridin-3-ylcarbonyl)piperidin-4-yl]-1H-pyrazolo[3,4-d]pyrimidin-6-yl}phenyl)-3-phenylurea] | 173
CC(=O)Nc1ccc(-c2nc(N3CCOCC3)c3cnn(C4CCCCO4)c3n2)cc1 (stereo not shown) [Compound 224, N-{4-[4-morpholin-4-yl-1-(tetrahydro-2H-pyran-2-yl)-1H-pyrazolo[3,4-d]pyrimidin-6-yl]phenyl}acetamide] | 1650
O=C(NCc1ccccc1)Nc1ccc(-c2nc(N3CCOCC3)c3cnn(C4CCN(Cc5ccccc5)CC4)c3n2)cc1 [Compound 258, 1-benzyl-3-{4-[1-(1-benzylpiperidin-4-yl)-4-morpholin-4-yl-1H-pyrazolo[3,4-d]pyrimidin-6-yl]phenyl}urea] | 533
Oc1cccc(-c2nc(N3CCOCC3)c3c(F)nn(-c4ccccc4)c3n2)c1 [Compound 964, 3-(3-fluoro-4-morpholin-4-yl-1-phenyl-1H-pyrazolo[3,4-d]pyrimidin-6-yl)phenol] | 70
COC(=O)Nc1ccc(-c2nc(N3CCOCC3)c3cnn(C4CCN(Cc5ccc(Cl)nc5)CC4)c3n2)cc1 [Compound 698, methyl [4-(1-{1-[(6-chloropyridin-3-yl)methyl]piperidin-4-yl}-4-morpholin-4-yl-1H-pyrazolo[3,4-d]pyrimidin-6-yl)phenyl]carbamate] | 619
N#CN=C(N)Nc1ccc(-c2nc(N3CCOCC3)c3cnn(C4CCN(C(=O)c5cccnc5)CC4)c3n2)cc1 [Compound 655, 2-cyano-1-(4-{4-morpholin-4-yl-1-[1-(pyridin-3-ylcarbonyl)piperidin-4-yl]-1H-pyrazolo[3,4-d]pyrimidin-6-yl}phenyl)guanidine] | 344
C[C@@H]1CN(c2nc(-c3cccc(O)c3)nc3c2cnn3-c2ccccc2)C[C@H](C)O1 [Compound 478, 3-{4-[(2R,6S)-2,6-dimethylmorpholin-4-yl]-1-phenyl-1H-pyrazolo[3,4-d]pyrimidin-6-yl}phenol] | 9500
Oc1cncc(-c2nc(N3CCOCC3)c3cnn(C4CCN(Cc5ccccc5)CC4)c3n2)c1 [Compound 930, 5-[1-(1-benzylpiperidin-4-yl)-4-morpholin-4-yl-1H-pyrazolo[3,4-d]pyrimidin-6-yl]pyridin-3-ol] | 36
c1cc2cc(-c3nc(N4CCOCC4)c4cnn(C5CCNCC5)c4n3)ccc2[nH]1 [Example 46] | 1310
CCNC(=NC#N)Nc1ccc(-c2nc(N3CCOCC3)c3cnn(C4CCN(Cc5cccnc5)CC4)c3n2)cc1 [Compound 652, 2-cyano-1-ethyl-3-(4-{4-morpholin-4-yl-1-[1-(pyridin-3-ylmethyl)piperidin-4-yl]-1H-pyrazolo[3,4-d]pyrimidin-6-yl}phenyl)guanidine] | 916
COC(=O)Nc1ccc(-c2nc(N3CCOCC3)c3cnn(C4CCN(Cc5ccc(F)cc5)CC4)c3n2)cc1 [Compound 959, methyl (4-{1-[1-(4-fluorobenzyl)piperidin-4-yl]-4-morpholin-4-yl-1Hpyrazolo[3,4-d]pyrimidin-6-yl}phenyl)carbamate] | 750
Oc1cncc(-c2nc(N3CCOCC3)c3cnn(C4CCN(Cc5ccccc5)CC4)c3n2)c1 [Compound 250, 5-[1-(1-benzylpiperidin-4-yl)-4-morpholin-4-yl-1H-pyrazolo[3,4-d]pyrimidin-6-yl]pyridin-3-ol] | 37
CNC(=O)Nc1ccc(-c2nc(N3CCOCC3)c3cnn(-c4ccccc4)c3n2)cc1 [Example 297, 1-methyl-3-[4-(4-morpholin-4-yl-1-phenyl-1H-pyrazolo[3,4-d]pyrimidin-6-yl)phenyl]urea] | 51

Structure (SMILES) | IC50 [nM]
c1ccc(CN2CCC(n3ncc4c(N5CCOCC5)nc(-c5ccc6ncccc6c5)nc43)CC2)cc1 [Compound 937, 6-[1-(1-benzylpiperidin-4-yl)-4-morpholin-4-yl-1H-pyrazolo[3,4-d]pyrimidin-6-yl]quinoline] | 466
Nc1cc(F)c(-c2nc(N3CCOCC3)c3cnn(C4CCN(C(=O)c5cccnc5)CC4)c3n2)cc1F [Compound 464, 2,5-difluoro-4-{4-morpholin-4-yl-1-[1-(pyridin-3-ylcarbonyl)piperidin-4-yl]-1H-pyrazolo[3,4-d]pyrimidin-6-yl}aniline] | 3620
COC(=O)Nc1ccc(-c2nc(N3CCOCC3)c3cnn(C4CCN(C(=O)c5ccccc5OC)CC4)c3n2)cc1 [Compound 690, methyl (4-{1-[1-(2-methoxybenzoyl)piperidin-4-yl]-4-morpholin-4-yl-1H-pyrazolo[3,4-d]pyrimidin-6-yl}phenyl)carbamate] | 888
CNC(=O)Nc1ccc(-c2nc(N3CCOCC3)c3cnn(C4CCN(C)CC4)c3n2)cc1 [Compound 646, 1-methyl-3-{4-[1-(1-methylpiperidin-4-yl)-4-morpholin-4-yl-1H-pyrazolo[3,4-d]pyrimidin-6-yl]phenyl}urea] | 211
CN(C)CCC(=O)Nc1ccc(-c2nc(N3CCOCC3)c3cnn(-c4ccccc4)c3n2)cc1 [Compound 133] | 223
c1cncc(CN2CCC(n3ncc4c(N5CCOCC5)nc(-c5ccc6c(c5)CCN6)nc43)CC2)c1 [Compound 416, 6-(2,3-dihydro-1H-indol-5-yl)-4-morpholin-4-yl-1-[1-(pyridin-3-ylmethyl)piperidin-4-yl]-1H-pyrazolo[3,4-d]pyrimidine] | 1490
CNC(=NC#N)Nc1ccc(-c2nc(N3CCOCC3)c3cnn(C4CCN(C(=O)c5cccnc5)CC4)c3n2)cc1 [Compound 656, 2-cyano-1-methyl-3-(4-{4-morpholin-4-yl-1-[1-(pyridin-3-ylcarbonyl)piperidin-4-yl]-1H-pyrazolo[3,4-d]pyrimidin-6-yl}phenyl)guanidine] | 382
CN(C)CC(=O)Nc1ccc(-c2nc(N3CCOCC3)c3cn[nH]c3n2)cc1 [Compound 958, N2,N2-dimethyl-N-[4-(4-morpholin-4-yl-1H-pyrazolo[3,4-d]pyrimidin-6-yl)phenyl]glycinamide] | 2270
CCOC(=O)Nc1ccc(-c2nc(N3CCOCC3)c3cnn(C4CCN(C(=O)c5ccccc5)CC4)c3n2)cc1 [Compound 628, ethyl {4-[1-(1-benzoylpiperidin-4-yl)-4-morpholin-4-yl-1H-pyrazolo[3,4-d]pyrimidin-6-yl]phenyl}carbamate] | 1580
CNC(=O)Nc1ccc(-c2nc(N3CCOCC3)c3cnn(C4CCN(Cc5ccccc5)CC4)c3n2)cc1F [Example 348, 1-{4-[1-(1-benzylpiperidin-4-yl)-4-morpholin-4-yl-1H-pyrazolo[3,4-d]pyrimidin-6-yl]-2-fluorophenyl}-3-methylurea] | 199
CNC(=O)Nc1ccc(-c2nc(N3CCOCC3)c3cnn(C4CCN(C(=O)c5cnccn5)CC4)c3n2)cc1 [Compound 666, 1-methyl-3-(4-{4-morpholin-4-yl-1-[1-(pyrazin-2-ylcarbonyl)piperidin-4-yl]-1H-pyrazolo[3,4-d]pyrimidin-6-yl}phenyl)urea] | 198
CNC(=O)Nc1ccc(-c2nc(N3CCOCC3)c3cnn(C4CCCCO4)c3n2)cc1 (stereo not shown) [Example 235, 1-methyl-3-{4-[4-morpholin-4-yl-1-(tetrahydro-2H-pyran-2-yl)-1H-pyrazolo[3,4-d]pyrimidin-6-yl]phenyl}urea] | 4920
O=C(Nc1ccccc1)Nc1ccc(-c2nc(N3CCOCC3)c3cnn(C4CCN(C(=O)c5cccnc5)CC4)c3n2)cc1 [Example 343, 1-(4-{4-morpholin-4-yl-1-[1-(pyridin-3-ylcarbonyl)piperidin-4-yl]-1H-pyrazolo[3,4-d]pyrimidin-6-yl}phenyl)-3-phenylurea] | 14
CC(=O)Nc1ccc(-c2nc(N3CCOCC3)c3cnn(C4CCN(Cc5cccnc5)CC4)c3n2)cc1 [Example 158, N-(4-{4-morpholin-4-yl-1-[1-(pyridin-3-ylmethyl)piperidin-4-yl]-1H-pyrazolo[3,4-d]pyrimidin-6-yl}phenyl)acetamide] | 404
Nc1ccc(-c2nc(N3CCOCC3)c3cnn(C4CCCCO4)c3n2)cc1 (stereo not shown) [Compound 934, 4-[4-morpholin-4-yl-1-(tetrahydro-2H-pyran-2-yl)-1H-pyrazolo[3,4-d]pyrimidin-6-yl]aniline] | 4920
CN(C)CC=CC(=O)N1CCC(n2ncc3c(N4CCOCC4)nc(-c4ccc5[nH]ccc5c4)nc32)CC1 [Compound 957, 4-{4-[6-(1H-indol-5-yl)-4-morpholin-4-yl-1H-pyrazolo[3,4-d]pyrimidin-1-yl]piperidin-1-yl}-N,N-dimethyl-4-oxobut-2-en-1-amine] | 480
CNC(=O)Nc1ccc(-c2nc(N3CCOCC3)c3cnn(C4CCN(C(=O)c5cccnc5)CC4)c3n2)c(F)c1 [Example 461, 1-(3-fluoro-4-{4-morpholin-4-yl-1-[1-(pyridin-3-ylcarbonyl)piperidin-4-yl]-1H-pyrazolo[3,4-d]pyrimidin-6-yl}phenyl)-3-methylurea] | 887

Source: patent US20080234262A1 (Wyeth, priority 2007, published 2008)
